Assay results taken from ChEMBL document CHEMBL1212927, “Synthesis and structure-activity relationships of novel 8a-aza-8a-homoerythromycin A ketolides” (2010).
≈ marks a conversion by molar mass, not a printed value.

What was measured:
Staphylococcus aureus [1] = experiment: Antibacterial activity against inducible macrolide-lincosamide-streptogramin B-resistant Staphylococcus aureus B0538 by agar microdilution method; assay type: functional
Staphylococcus aureus [2] = experiment: Antibacterial activity against constitutive macrolide-lincosamide-streptogramin B-resistant Staphylococcus aureus B0330 by agar microdilution method; assay type: functional
Staphylococcus aureus [3] = experiment: Antibacterial activity against efflux-resistant Staphylococcus aureus B0331 by agar microdilution method; assay type: functional
Streptococcus pneumoniae [4] = experiment: Antibacterial activity against constitutive macrolide-lincosamide-streptogramin B-resistant Streptococcus pneumoniae B0627 by agar microdilution method; assay type: functional
Streptococcus pneumoniae [5] = experiment: Antibacterial activity against efflux-resistant Streptococcus pneumoniae B0326 by agar microdilution method; assay type: functional
Streptococcus pyogenes [6] = experiment: Antibacterial activity against inducible macrolide-lincosamide-streptogramin B-resistant Streptococcus pyogenes B0543 by agar microdilution method; assay type: functional
Streptococcus pyogenes [7] = experiment: Antibacterial activity against constitutive macrolide-lincosamide-streptogramin B-resistant Streptococcus pyogenes B0544 by agar microdilution method; assay type: functional
Streptococcus pyogenes [8] = experiment: Antibacterial activity against efflux-resistant Streptococcus pyogenes B0545 by agar microdilution method; assay type: functional
Moraxella catarrhalis = experiment: Antibacterial activity against Moraxella catarrhalis B0324 by agar microdilution method; assay type: functional
Haemophilus influenzae = experiment: Antibacterial activity against Haemophilus influenzae B0529 by agar microdilution method; assay type: functional
Staphylococcus aureus [9] = experiment: Antibacterial activity against erythromycin A-susceptible Staphylococcus aureus B0329 by agar microdilution method
Streptococcus pneumoniae [10] = experiment: Antibacterial activity against erythromycin-susceptible Streptococcus pneumoniae B0541 by agar microdilution method
Streptococcus pyogenes [11] = experiment: Antibacterial activity against erythromycin A-susceptible Streptococcus pyogenes B0542 by agar microdilution method

Structure (SMILES) | MIC (Staphylococcus aureus [1]) [µg/mL] | MIC (Staphylococcus aureus [2]) [µg/mL] | MIC (Staphylococcus aureus [3]) [µg/mL] | MIC (Streptococcus pneumoniae [4]) [µg/mL] | MIC (Streptococcus pneumoniae [5]) [µg/mL] | MIC (Streptococcus pyogenes [6]) [µg/mL] | MIC (Streptococcus pyogenes [7]) [µg/mL] | MIC (Streptococcus pyogenes [8]) [µg/mL] | MIC (Moraxella catarrhalis) [µg/mL] | MIC (Haemophilus influenzae) [µg/mL] | MIC (Staphylococcus aureus [9]) [µg/mL] | MIC (Streptococcus pneumoniae [10]) [µg/mL] | MIC (Streptococcus pyogenes [11]) [µg/mL]
CC[C@H]1OC(=O)[C@H](C)C(=O)[C@H](C)[C@@H](O[C@@H]2O[C@H](C)C[C@H](N(C)C)[C@H]2O)[C@](C)(OCC=Cc2cnc3ccccc3c2)C[C@@H](C)C(=O)[C@H](C)[C@H]2NC(=O)O[C@@]21C [CETHROMYCIN] | 0.25 (≈ 0.326 µM) | > 64 | 0.25 (≈ 0.326 µM) | ≤ 0.125 | ≤ 0.06 | ≤ 0.06 | 1 (≈ 1.31 µM) | ≤ 0.125 | ≤ 0.125 | 1 (≈ 1.31 µM) | ≤ 0.06 | ≤ 0.06 | ≤ 0.06
CC[C@H]1OC(=O)[C@H](C)C(=O)[C@H](C)[C@@H](O[C@@H]2O[C@H](C)C[C@H](N(C)C)[C@H]2O)[C@](C)(OC)C[C@@H](C)C(=O)[C@H](C)[C@H]2N(CCCCn3cnc(-c4cccnc4)c3)C(=O)O[C@]12C [TELITHROMYCIN] | 0.5 (≈ 0.616 µM) | > 64 | 0.25 (≈ 0.308 µM) | ≤ 0.125 | 0.5 (≈ 0.616 µM) | ≤ 0.06 | 4 (≈ 4.93 µM) | 0.25 (≈ 0.308 µM) | ≤ 0.125 | 1 (≈ 1.23 µM) | ≤ 0.125 | ≤ 0.06 | ≤ 0.06
